Measurements: patent US7439225B2, “Substances K01-B0171 and process for producing the same” (The Kitasato Institute, priority 2003, dated 2008)
Positions of bridges follow the written chain, without caps; N, C: chain ends. Residues, ends and D or L forms follow the SMILES beside them.

Columns and labels:
[1] = Solubility in solvent; format: physicochemical
[2] = Grouping for acidic, neutral and basic; format: physicochemical

Compound: CCC(C)C(NC(=O)C(NC(=O)C(CC(N)=O)NC(=O)C(CO)NC(=O)C(Cc1c[nH]cn1)NC(=O)CNC(=O)C(NC(=O)C(Cc1c[nH]c2ccccc12)NC(=O)C1CCC(=O)NCC(=O)NC(CO)C(=O)NC(CCC(N)=O)C(=O)NC(CC(C)C)C(=O)NC(C(C)C)C(=O)NC(Cc2ccc(O)cc2)C(=O)NC(CCCNC(=N)N)C(=O)N1)C(C)C)C(C)C)C(=O)NC(CCCCN)C(=O)NCC(=O)N1CCCC1C(=O)N1CCCC1C(=O)O (stereo not shown) [K01-B0171-C substance] (GSQLVYREWVGHSNVIKGPP-OH; lactam N-8; configuration not given here)
- Solubility in solvent [1]: soluble in water, dimethyl sulfoxide (DMSO), methanol and ethanol, and insoluble in acetonitrile, ethyl acetate, chloroform and acetone
- Grouping for acidic, neutral and basic [2]: Weak basic substance

Compound: CCC(C)C(NC(=O)C(NC(=O)C(CC(N)=O)NC(=O)C(CO)NC(=O)C(Cc1c[nH]cn1)NC(=O)CNC(=O)C(NC(=O)C(Cc1c[nH]c2ccccc12)NC(=O)C1CCC(=O)NCC(=O)NC(CO)C(=O)NC(CCC(N)=O)C(=O)NC(CC(C)C)C(=O)NC(C(C)C)C(=O)NC(Cc2ccc(O)cc2)C(=O)NC(CCCNC(=N)N)C(=O)N1)C(C)C)C(C)C)C(=O)NC(CCCCN)C(=O)N1CCCC1C(=O)O (stereo not shown) [K01-B0171-B substance] (GSQLVYREWVGHSNVIKP-OH; lactam N-8; configuration not given here)
- Solubility in solvent [1]: soluble in water, dimethyl sulfoxide (DMSO), methanol and ethanol, and insoluble in acetonitrile, ethyl acetate, chloroform and acetone
- Grouping for acidic, neutral and basic [2]: Weak basic substance
